≈ marks a conversion by molar mass, not a printed value. Calls of active or inactive are those of the source. The calls are words filed in the database; no cut-off is given here. Non-standard residues stand in square brackets, D forms with d. Residues, ends and D or L forms follow the SMILES beside them. Orn = NCCC[C@H](N)C(=O)O
Assays:
HepG2 = experiment: Cytotoxicity against human HepG2 cells; assay type: functional, cell-based
[1] = Cytotoxicity against human Chang cells; assay type: cell-based
[2] = Hemolytic activity against RBC (unknown origin) at 60 uM; assay type: ADME, cell-based, Erythrocyte; details: red blood cells (erythrocytes); read-out: Activity
[3] = Selectivity index, ratio of IC50 for human Chang cells to IC50 for human HepG2 cells
Staphylococcus aureus [4] = experiment: Bactericidal activity against clinical isolate amoxicillin resistance Staphylococcus aureus; assay type: functional
[5] = tested on: Trichophyton mentagrophytes; experiment: Antifungal activity against Trichophyton mentagrophytes; assay type: functional
[6] = tested on: Trichophyton mentagrophytes; experiment: Fungicidal activity against Trichophyton mentagrophytes; assay type: functional
Candida albicans [7] = experiment: Fungicidal activity against Candida albicans; assay type: functional
Staphylococcus aureus [8] = experiment: Antibacterial activity against clinical isolate amoxicillin resistance Staphylococcus aureus; assay type: functional
Bacillus cereus [9] = experiment: Bactericidal activity against Bacillus cereus; assay type: functional
[10] = Hemolytic activity against RBC (unknown origin) at 240 uM; assay type: ADME, cell-based, Erythrocyte; details: red blood cells (erythrocytes); read-out: Activity
MCF7 = experiment: Cytotoxicity against human MCF7 cells; assay type: functional, cell-based
PANC-1 = experiment: Cytotoxicity against human PANC1 cells; assay type: functional, cell-based
[11] = Hemolytic activity against RBC (unknown origin) at 120 uM; assay type: ADME, cell-based, Erythrocyte; details: red blood cells (erythrocytes); read-out: Activity
[12] = Selectivity index, ratio of IC50 for human Chang cells to IC50 for human MCF7 cells
[13] = Hemolytic activity against RBC (unknown origin) at 40 uM; assay type: ADME, cell-based, Erythrocyte; details: red blood cells (erythrocytes); read-out: Activity
[14] = Selectivity index, ratio of IC50 for human Chang cells to IC50 for human M-HeLa cells
[15] = Selectivity index, ratio of IC50 for human Chang cells to IC50 for human PANC1 cells
[16] = Hemolytic activity against RBC (unknown origin) at 5 uM; assay type: ADME, cell-based, Erythrocyte; details: red blood cells (erythrocytes); read-out: Activity
[17] = Hemolytic activity against RBC (unknown origin) at 10 uM; assay type: ADME, cell-based, Erythrocyte; details: red blood cells (erythrocytes); read-out: Activity
[18] = Hemolytic activity against RBC (unknown origin) at 20 uM; assay type: ADME, cell-based, Erythrocyte; details: red blood cells (erythrocytes); read-out: Activity
M-HeLa = experiment: Cytotoxicity against human M-HeLa cells; assay type: functional, cell-based
[19] = Hemolytic activity against RBC (unknown origin) at 480 uM; assay type: ADME, cell-based, Erythrocyte; details: red blood cells (erythrocytes); read-out: Activity
Staphylococcus aureus [20] = experiment: Antibacterial activity against Staphylococcus aureus ATCC 209p; assay type: functional
[21] = Hemolytic activity against RBC (unknown origin) at 1 uM; assay type: ADME, cell-based, Erythrocyte; details: red blood cells (erythrocytes); read-out: Activity
Staphylococcus aureus [22] = experiment: Antibacterial activity against clinical isolate amoxicillin and ciprofloxacin resistance Staphylococcus aureus; assay type: functional
Staphylococcus aureus [23] = experiment: Bactericidal activity against clinical isolate amoxicillin and ciprofloxacin resistance Staphylococcus aureus; assay type: functional
Candida albicans [24] = experiment: Antifungal activity against Candida albicans; assay type: functional
Staphylococcus aureus [25] = experiment: Bactericidal activity against Staphylococcus aureus ATCC 209p; assay type: functional
Bacillus cereus [26] = experiment: Antibacterial activity against Bacillus cereus; assay type: functional

Row | SMILES | IC50 [1] [µM] | hemolysis at 60 µM [2] [%] | MBC (Staphylococcus aureus [4]) | MIC [5] | MFC [6] | MFC (Candida albicans [7]) | MIC (Staphylococcus aureus [8]) | MBC (Bacillus cereus [9]) | hemolysis at 240 µM [10] [%] | IC50 (HepG2; read-out: IC50) [µM] | IC50 (PANC-1) [µM] | hemolysis at 120 µM [11] [%] | hemolysis at 40 µM [13] [%] | hemolysis at 5 µM [16] [%] | MIC (Staphylococcus aureus [20]) [µM] | MIC (Staphylococcus aureus [22]) | MBC (Staphylococcus aureus [23]) | MIC (Candida albicans [24]) | MBC (Staphylococcus aureus [25]) | MIC (Bacillus cereus [26]) | other results
1 | CC/C(=C(\c1ccccc1)c1ccc(OCCN(C)C)cc1)c1ccccc1 [TAMOXIFEN] | 46.2 | – | – | – | – | – | – | – | – | – | – | – | – | – | – | – | – | – | – | – | IC50 (HepG2): 23.4 µM
2 | CCCCCCCC[P+](Cc1ccccc1O)(c1ccccc1)c1ccccc1.[Cl-] | 46.3 | 0.6 | 35.4 µM | 284 µM | inactive | inactive | 17.7 µM | 17.7 µM | 4.8 | 25.7 | 12.5 | 2.3 | 0.4 | 0 | 8.8 | 35.4 µM | 142 µM | 284 µM | 8.8 µM | 17.7 µM | Ratio IC50 [3]: 1.8; IC50 (MCF7): 12.5 µM; Ratio IC50 [12]: 3.7; Ratio IC50 [14]: 12.5; Ratio IC50 [15]: 3.7; hemolysis at 10 µM [17]: 0%; hemolysis at 20 µM [18]: 0%; IC50 (M-HeLa): 3.7 µM; hemolysis at 480 µM [19]: 8.5%; hemolysis at 1 µM [21]: 0%
3 | COc1cccc2c1C(=O)c1c(O)c3c(c(O)c1C2=O)C[C@@](O)(C(=O)CO)C[C@@H]3O[C@H]1C[C@H](N)[C@H](O)[C@H](C)O1 [DOXORUBICIN] | 3 | – | – | – | – | – | – | – | – | 3.3 | 3.2 | – | – | – | – | – | – | – | – | – | –
4 | CC(=O)N1CCN(c2ccc(OCC3COC(Cn4ccnc4)(c4ccc(Cl)cc4Cl)O3)cc2)CC1 (configuration not stated) [KETOCONAZOLE] | – | – | – | 7.3 µM (≈ 3.88 µg/mL) | 16.6 µM (≈ 8.82 µg/mL) | 16.6 µM (≈ 8.82 µg/mL) | – | – | – | – | – | – | – | – | – | – | – | 7.3 µM (≈ 3.88 µg/mL) | – | – | –
5 | CCCCCC[P+](Cc1ccccc1O)(c1ccccc1)c1ccccc1.[Cl-] | 65.3 | 0.3 | 151 µM | 606 µM | inactive | inactive | 37.8 µM | 152 µM | 2.5 | 83 | 82 | 0.4 | 0.2 | 0 | 18.9 | 75.6 µM | 302 µM | 606 µM | 37.8 µM | 37.8 µM | Ratio IC50 [3]: 0.78; IC50 (MCF7): 86 µM; Ratio IC50 [12]: 0.76; Ratio IC50 [14]: 1.3; Ratio IC50 [15]: 0.79; hemolysis at 10 µM [17]: 0%; hemolysis at 20 µM [18]: 0.2%; IC50 (M-HeLa): 50 µM; hemolysis at 480 µM [19]: 4.8%; hemolysis at 1 µM [21]: 0%
6 | CCCCCCCCCCCCCCCC[P+](Cc1ccccc1O)(c1ccccc1)c1ccccc1.[Cl-] | 45.2 | 98 | 113 µM | 56.6 µM | inactive | inactive | 14.1 µM | 452 µM | 100 | 12.6 | 25.7 | 100 | 2.5 | 0.3 | 3.4 | 28.2 µM | inactive | 56.6 µM | 28.2 µM | 14.1 µM | Ratio IC50 [3]: 3.6; IC50 (MCF7): 13.2 µM; Ratio IC50 [12]: 3.4; Ratio IC50 [14]: 14.1; Ratio IC50 [15]: 1.8; hemolysis at 10 µM [17]: 0.9%; hemolysis at 20 µM [18]: 2.1%; IC50 (M-HeLa): 3.2 µM; hemolysis at 480 µM [19]: 100%; hemolysis at 1 µM [21]: 0.3%
7 | CCCCCCC[P+](Cc1ccccc1O)(c1ccccc1)c1ccccc1.[Cl-] | 41.6 | 0.3 | 73.2 µM | 586 µM | inactive | inactive | 73.2 µM | 146 µM | 1.9 | 26.3 | 40 | 0.4 | 0.3 | 0 | 18.3 | 36.6 µM | 146 µM | 586 µM | 18.3 µM | 36.6 µM | Ratio IC50 [3]: 1.6; IC50 (MCF7): 32.8 µM; Ratio IC50 [12]: 1.3; Ratio IC50 [14]: 7.6; Ratio IC50 [15]: 1.04; hemolysis at 10 µM [17]: 0.2%; hemolysis at 20 µM [18]: 0.3%; IC50 (M-HeLa): 5.5 µM; hemolysis at 480 µM [19]: 3.6%; hemolysis at 1 µM [21]: 0%
8 | CC1(C)S[C@@H]2[C@H](NC(=O)[C@H](N)c3ccc(O)cc3)C(=O)N2[C@H]1C(=O)O [AMOXICILLIN] | – | – | 85.6 µM (≈ 31.3 µg/mL) | – | – | – | 85.6 µM (≈ 31.3 µg/mL) | – | – | – | – | – | – | – | – | 94.4 µM (≈ 34.5 µg/mL) | 94.4 µM (≈ 34.5 µg/mL) | – | – | – | –
9 | CC(C)C[C@@H]1NC(=O)[C@H](CCCN)NC(=O)[C@H](C(C)C)NC(=O)[C@@H]2CCCN2C(=O)[C@@H](Cc2ccccc2)NC(=O)[C@H](CC(C)C)NC(=O)[C@H](CCCN)NC(=O)[C@H](C(C)C)NC(=O)[C@@H]2CCCN2C(=O)[C@@H](Cc2ccccc2)NC1=O (cyclo(L[dF]PV[Orn]L[dF]PV[Orn])) | – | 99 | – | – | – | – | – | – | 100 | – | – | 100 | 98 | 0.5 | – | – | – | – | – | – | hemolysis at 10 µM [17]: 1.5%; hemolysis at 20 µM [18]: 24%; hemolysis at 480 µM [19]: 100%; hemolysis at 1 µM [21]: 0%
10 | C=CCCCC[P+](Cc1ccccc1O)(c1ccccc1)c1ccccc1 | – | – | inactive | inactive | inactive | inactive | inactive | inactive | – | – | – | – | – | – | 609 | inactive | inactive | inactive | inactive | inactive | –
11 | CC1COc2c(N3CCN(C)CC3)c(F)cc3c(=O)c(C(=O)O)cn1c23 (configuration not stated) [OFLOXACIN] | – | – | – | – | – | – | – | 8.5 µM (≈ 3.07 µg/mL) | – | – | – | – | – | – | 2.4 (≈ 0.867 µg/mL) | – | – | – | 2.4 µM (≈ 0.867 µg/mL) | 4.1 µM (≈ 1.48 µg/mL) | –
12 | CCCCCCCCCCCCCC[P+](Cc1ccccc1O)(c1ccccc1)c1ccccc1.[Cl-] | 42.3 | 74 | 28.8 µM | 478 µM | inactive | inactive | 7.2 µM | 478 µM | 100 | 6.6 | 25 | 100 | 0.3 | 0 | 3.6 | 7.2 µM | 28.8 µM | 478 µM | 14.8 µM | 3.6 µM | Ratio IC50 [3]: 6.4; IC50 (MCF7): 6.6 µM; Ratio IC50 [12]: 6.4; Ratio IC50 [14]: 12.1; Ratio IC50 [15]: 1.7; hemolysis at 10 µM [17]: 0%; hemolysis at 20 µM [18]: 0%; IC50 (M-HeLa): 3.5 µM; hemolysis at 480 µM [19]: 100%; hemolysis at 1 µM [21]: 0%
13 | O=C(O)c1cn(C2CC2)c2cc(N3CCNCC3)c(F)cc2c1=O [CIPROFLOXACIN] | – | – | – | – | – | – | – | 1.5 µM (≈ 0.497 µg/mL) | – | – | – | – | – | – | 0.7 (≈ 0.232 µg/mL) | – | – | – | 1.5 µM (≈ 0.497 µg/mL) | 0.7 µM (≈ 0.232 µg/mL) | –
